Reference: patent US8193377B2, “(−)-epigallocatechin gallate derivatives for inhibiting proteasome” (The Hong Kong Polytechnic University, priority 2004, dated 2012)
Read-outs that look alike come from different tables or passages of the source.

Tests used:
[1] = tested on: ubiquitinated proteins, Bax, p27, IκBα in Jurkat T cells; assay: Western blot for ubiquitinated proteins and proteasome targets (Bax, p27, IκBα) in Jurkat T cells; type: cell-based, human; details: 25 μM, 24 h
Summary of the method: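 Jurkat T cells exposed to 25 μM compound for 4 or 24 h; whole-cell extracts probed by Western blot with specific antibodies to ubiquitinated proteins, IκBα, Bax and p27. Actin served as loading control; protein accumulation expressed as fold increase.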

Jurkat T cells [2] = assay: Trypan blue cell death assay in Jurkat T cells; type: cell-based, human; details: 24 h
Jurkat T cells [3] = assay: Western blot for PARP cleavage in Jurkat T cells; type: cell-based, human; details: 25 μM, 24 h
Method: (§1) Whole cells extracts were prepared as described previously (An B, Goldfarb R H, Siman R, Dou Q P. Novel dipeptidyl proteasome inhibitors overcome Bc1-2 protective function and selectively accumulate the cyclin-dependent kinase inhibitor p27 and induce apoptosis in transformed, but not normal, human fibroblasts. Cell Death Differ 1998; 5: 1062-75.). Analysis of Bax, IKBa, p27, PAW, and ubiquitinated protein expression were performed using monoclonal or polyclonal antibodies according to previously reported protocols (An B et. al.).
(§2) It has been shown that proteasome inhibition can induce apoptosis in a wide variety of cancer cells, but not in normal, non-transformed cells (An B et al). Jurkat T cells are treated with 25 μM of each of the selected polyphenols and their protected analogs for 24 h to investigate their abilities to induce apoptotic cell death. […] The unprotected 2 induced much less apoptosis (21%), while 25 μM VP-16, used as a positive control, induced 92% apoptosis (FIGS. 10C and 10D). Counterstain with DAPI, which binds to the minor groove in A-T rich regions of DNA, was decreased drastically in apoptotic cells (FIG. 10C), consistent with DNA fragmentation in late stage apoptosis.
(§3) To determine if the cell death observed (FIG. 16) was due to the induction of apoptosis, a similar experiment was performed in Jurkat T cells, followed by measurement of caspase-3 activation and PARP cleavage.

VA-13 cells [4] = assay: Immunostaining of apoptotic cells with anti-cleaved PARP-FITC; type: cell-based, human; details: 25 μM, 24 h
Method: Immunostaining of apoptotic cells was performed by addition of a FITC-conjugated polyclonal antibody that recognizes cleaved poly(ADP-ribose) polymerase (PARP) and visualized on an Axiovert 2 5 (Zeiss; Thornwood, N.Y.) microscope. Cells were grown to about 80% confluency in 60 mm dishes. VA-13 cells were then treated with VP-16, 2, or 2a (25 μM) for 24 h. Following treatment, both suspension and adhering cells were collected and washed twice in PBS pH 7.4. The cells were washed between all steps listed below and all washes are 1 min duration with PBS. Cells were then fixed in ice-cold 70% ethanol, permeabilized in 0.1% Triton-X-100 and blocked for 30 min in 1% bovine serum albumin (BSA) at room temperature. Incubation with the primary FITC-conjugated-p85/PARP antibody was for 30 min at 4° C. in the dark with mild shaking. Cell suspension was then transferred to glass slides in the presence of Vector Shield mounting medium with DAPI. Images were captured using AxioVision 4.1 and adjusted using Adobe Photoshop 6.0 software. Cell death was quantified by counting the number of apoptotic cells over the total number of cells in the same field. Data are mean of duplicate experiments ±SD.
as §2

MCF-7 cells = assay: MTT assay; type: cell-based, human; details: 24 h
Method: MTT was used to determine effects of polyphenols on overall proliferation of tumor cells. Human breast MCF-7 cells were plated in a 96 well plate and grown to 70-80% confluency, followed by addition of analogs for 24 h. MTT (1 mg/ml) in PBS was then added to wells and incubated at 37° C. for 4 hours to allow for complete cleavage of the tetrazolium salt by metabolically active cells. Next, the MTT was removed and 100 μl of DMSO was added and colorimetric analysis performed using a multilabel plate reader at 560 nm (Victor^3; Perkin Elmer). Absorbance values plotted are the mean from triplicate experiments.
Treated breast cancer (MCF-7) cells were then treated with 5 or 25 μM of peracetate-protected analogs for 24 h, followed by MTT analysis to determine their effects on cell proliferation. Compound 1 at 25 μM inhibited cellular proliferation by 40% (FIG. 11A).

LNCaP cells [5] = assay: Apoptotic morphological changes, phase contrast; type: cell-based, human; details: 25 μM, 24 h
LNCaP cells [6] = assay: Soft agar colony formation assay; type: cell-based, human; details: 25 μM once at plating, 21 days
[7] = tested on: ubiquitin-conjugated proteins in LNCaP cells; assay: Western blot for ubiquitin-conjugated proteins in LNCaP cells; type: cell-based, human; details: 25 μM, 24 h
Method: as §1
To determine if acetate-protected analogs are potent proteasome inhibitors in other cancer cell systems, prostate cancer LNCaP cells were treated for 24 h with 25 μM of (−)-EGCG, 1, 2a, or 3a, with DMSO as a control.

[8] = molecular target: T1, proteasome in VA-13 cells (Homo sapiens, UniProt P28074); assay: Chymotrypsin-like proteasome activity in intact VA-13 cells; type: cell-based; details: 25 μM, 24 h
T1 construct: endogenous in cells; host or cells: VA-13 (SV40-transformed human fibroblasts)
Method: (§4) VA-13 or WI-38 cells were grown in 24 well plates (2 ml/well) to 70-80% confluency, followed by 24 h treatment with […] (−)-EGCG, 2, or 2a. […] Suc-Leu-Leu-Val-Tyr-AMC substrate was then added for 2.5 h at 37° C. and the chyrnotrypsin-like activity was measured as described above. Alternatively, cells were treated with each compound at 25 μM for 4 or 24 h, and harvested and lysed. Suc-Leu-Leu-Val-Tyr-AMC (40 μM) was then incubated with the prepared cell lysates for 2.5 h and the chymotrypsin-like activity was measured as described above.
The ability to induce apoptosis in tumor cells, but not normal cells is an important measure for novel anti-cancer drugs. To determine whether the protected compounds also affect normal cells, both VA-13 and WI-38 cells were treated with 25 μM of (−)-EGCG, 2, or 2a for 24 h and examined proteasome activity, nuclear morphological changes, and detachment. A differential decrease was found in the chyrnotrypsin-like activity of the proteasome in VA-13 cells over normal WI-38 cells (FIG. 12A). […] Conversely, the proteasome activity in WI-38 cells was decreased by only −5% with all three polyphenol treatments.

VA-13 cells [9] = assay: Nuclear staining (Hoechst) for apoptotic morphology, VA-13; type: cell-based, human; details: 25 μM
Method: After each drug treatment, both detached and attached VA-13 and WI-38 cells were stained Hoechst 33342 to assess for apoptosis. Briefly, cells were washed 2× in PBS, fixed for 1 h with 70% ethanol at 4° C., washed 3× in PBS, and stained with […] Hoechst for 30 min in the dark at room temperature. Detached cells were plated on a slide and attached cells were visualized on the plate with a fluorescent microscope at 10× or 40× resolution (Zeiss, Germany). Digital Scientific obtained images with AxioVision 4.1 and adjusted using Adobe Photoshop 6.0.
Next, apoptotic nuclear morphology is examined after treatment with natural (−)-EGCG, 2, and 2a (FIG. 12B). […] A comparison among all the protected analogs was then performed using 25 μM for 24 h. […] All of the protected analogs induced apoptosis in transformed (VA-13), but not normal (WI-38) cells (FIGS. 12B and 12C).

YT cells = assay: Western blot in non-transformed natural killer YT cells compared with Jurkat T cells; type: cell-based, human; details: 25 μM, 24 h
[10] = molecular target: T2, purified rabbit 20s proteasome (Oryctolagus cuniculus, UniProt G1T4Q9); assay: Inhibition of chymotrypsin-like activity of purified 20S proteasome; type: biochemical
T2 construct: purchased Boston Biochem (Cambridge, Mass.)
T2 sequence (G1T4Q9 1-263): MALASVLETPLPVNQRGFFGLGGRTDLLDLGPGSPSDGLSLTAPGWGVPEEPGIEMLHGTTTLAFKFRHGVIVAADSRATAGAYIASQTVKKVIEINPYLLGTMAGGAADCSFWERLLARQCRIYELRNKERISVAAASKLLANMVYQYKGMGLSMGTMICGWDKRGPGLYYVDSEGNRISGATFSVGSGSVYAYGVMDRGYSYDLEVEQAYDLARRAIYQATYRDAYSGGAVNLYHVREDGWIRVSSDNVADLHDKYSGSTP
Summary of the method: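 Purified rabbit 20S proteasome (0.5 μg) incubated 30 min with 40 μM Suc-Leu-Leu-Val-Tyr-AMC and compounds up to 25 μM, dissolved in DMSO. Chymotrypsin-like activity read by AMC fluorescence; IC50 derived from the concentration series.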

[11] = molecular target: 20S prokaryotic proteasome (UniProt Q9P992); assay: Table 2: effects of tea polyphenols on 20S prokaryotic proteasome activities; type: biochemical; details: Table 2, This work
20S prokaryotic proteasome, sequence (Q9P992 whole entry): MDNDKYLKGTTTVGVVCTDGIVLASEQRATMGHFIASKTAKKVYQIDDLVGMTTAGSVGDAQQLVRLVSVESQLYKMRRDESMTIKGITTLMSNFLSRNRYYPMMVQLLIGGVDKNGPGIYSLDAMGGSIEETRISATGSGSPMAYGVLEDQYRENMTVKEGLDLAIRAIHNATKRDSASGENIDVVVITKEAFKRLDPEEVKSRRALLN
Method: To further examine the effects of B-ring —OH group deletion on proteasome-inhibitory and cell death-inducing abilities, we synthesized several novel EGCG analogs with eliminated —OH groups on the B-ring as well as their putative prodrugs, the peracetate-protected counterparts. By using a purified 20S proteasome and a chymotrypsin-like fluorogenic substrate, the proteasome-inhibitory effects of the following unprotected polyphenol analogs are determined: […]

[12] = molecular target: T3, proteasomal chymotrypsin-like activity in Jurkat T cells (Homo sapiens, UniProt P28074); assay: Proteasomal chymotrypsin-like activity in intact Jurkat T cells / their lysates; type: cell-based; details: 24 h, Jurkat T
T3 construct: measurement of the proteasomal chymotrypsin-like activity in the prepared lysates; endogenous in cells; host or cells: Jurkat T cells (human leukemia)
T3 sequence (P28074 60-263): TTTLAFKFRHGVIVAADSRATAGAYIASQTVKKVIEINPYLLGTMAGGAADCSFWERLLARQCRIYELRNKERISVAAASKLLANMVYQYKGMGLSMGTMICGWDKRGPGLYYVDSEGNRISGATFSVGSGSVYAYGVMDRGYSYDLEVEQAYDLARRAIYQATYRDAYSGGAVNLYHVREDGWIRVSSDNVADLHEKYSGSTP
Method: as §4
If 1 converts to (−)-EGCG inside the cells, proteasome inhibition in vivo should be detected. To examine this possibility, human Jurkat cells was treated with 25 μM of 1 or (−)-EGCG for 12 or 24 h, followed by measurement of proteasome activity by using a chymotrypsin-like specific fluorogenic substrate in intact cells (FIG. 6a) or Western blot for ubiquinated proteins (FIG. 6b). […] To analyze the intracellular level of polyubiquitinated proteins, cells were lysed after 12 hours incubation and subjected to Western blotting. […] It is possible that the amount of EGCG generated from 1, and thus its biological activity inside the cells depends on a combination of factors: the relative permeability of 1 into the cells, the amount of esterase enzymes and the amount of anti-oxidants that may be present in the cells at any time.
To determine whether the unprotected and protected polyphenol analogs could inhibit the proteasomal activity in intact cells, leukemia Jurkat T cells were treated with each compound at 25 μM for 4 and 24 h, followed by collection of cell pellets and measurement of the proteasomal chymotrypsin-like activity in the prepared lysates.

[13] = tested on: phosphorylated Akt (p-Akt); assay: Western blot for phosphorylated Akt in Jurkat T cells; type: cell-based, human; details: 25 μM, 24 h
Method: (−)-EGCG and 1 were incubated with Jurkat T cells for 24 h at 5, 10 and 25 μM, followed by Western blot analysis using a specific antibody to phosphorylated Akt (FIG. 7). […] Actin was used as a loading control.

[14] = rats given 56 mg orally; cited from earlier work
[15] = Stability test in RPMI 1640 culture medium, HPLC; details: 0.1 mM in RPMI, 37° C., pH around 8
Method: The stability of 1 with (−)-EGCG in a culture medium (RMPI) is compared, which mimics the body fluid with a pH value around 8. (−)-EGCG or 1 at 0.1 mM was incubated in 1 mL RMPI at 37° C. at indicated times. At different time points, the medium was analyzed by HPLC for the amount of tested compound remaining.

[16] = tested on: caspase-3 activity in Jurkat T cells; assay: Induction of caspase-3 activity (Ac-DEVD-AMC) in Jurkat T cells; type: cell-based, human; details: 25 μM, 4 h
Method: Cells were treated with each compound at 25 μM for 4 or 24 h, and then harvested and lysed. Ac-DEVD-AMC (40 μM) was added to the cell lysates for 2.5 h and the caspase-3 activity.
as §3

[17] = Suc-Leu-Leu-Val-Tyr-AMC, 2 h incubation, Table 1, read-out: IC50 (μM), unprotected

Compound: CC(=O)Oc1cccc(C(=O)O[C@@H]2Cc3c(OC(C)=O)cc(OC(C)=O)cc3O[C@H]2c2cc(OC(C)=O)c(OC(C)=O)c(OC(C)=O)c2)c1 (relative stereo) [Compound 2a, (2S*,3R*)-trans-5,7-Bis(acetyloxy)-2-[3,4,5-tris(acetyloxy)phenyl]chroman-3-yl 3-acetyloxybenzoate]
- accumulation of p27 [1]: Accumulation of p27
- cell death (trypan blue) (Jurkat T cells [2]; 25 μM): 99%
- apoptosis-specific PARP cleavage (Jurkat T cells [3]): induced apoptosis-specific PARP cleavage
- apoptotic cells (p85 cleaved PARP) (VA-13 cells [4]): 73%
- inhibition of cellular proliferation (MCF-7 cells; 5 μM): 50%
- inhibition of cellular proliferation (MCF-7 cells; 25 μM): 70%
- apoptotic morphological changes (LNCaP cells [5]): dramatic round-up, detachment, and cellular fragmentation
- colony formation in soft agar (LNCaP cells [6]): most potent inhibitors of colony formation
- ubiquitin-conjugated proteins [7]: greatest increase
- decrease in proteasome chymotrypsin-like activity [8]: 92%
- apoptotic nuclear morphology (VA-13 cells [9]; 24 h): markedly induced apoptosis
- apoptosis (PARP cleavage), Jurkat T versus YT cells (YT cells): only Jurkat cells underwent apoptosis

Compound: O=C(O[C@@H]1Cc2c(O)cc(O)cc2O[C@@H]1c1cc(O)c(O)c(O)c1)c1cc(O)c(O)c(O)c1 [(−)-EGCG, (−)-epigallocatechin-3-gallate, reference compound]
- inhibition at 10 µM ([10]; 10 μM, purified 20S proteasome, read-out: inhibition of proteasomal chymotrypsin-like activity): 80 to 90%
- IC50 [10, 17]: 0.3 µM
- IC50 ([10]; up to 25 μM, 30 min incubation, read-out: IC50): 0.2 µM
- IC50 [11]: 300 nM
- inhibition at 25 µM ([12]; Jurkat, read-out: inhibition of proteasome activity in intact cells): 31%
- reduction of p-Akt level (densitometry) [13]: 32%
- cell death (Jurkat T cells [2]; 10 μM): 5%
- apoptotic morphological changes (LNCaP cells [5]): enlarged, flattened cells
- colony formation in soft agar (LNCaP cells [6]): significant decrease in colony formation
- apoptotic nuclear morphology (VA-13 cells [9]; 24 h): little or no apoptosis
- apoptotic nuclear morphology (VA-13 cells [9]; 36 h): did initiate apoptosis
- apoptosis (PARP cleavage), Jurkat T versus YT cells (YT cells): only Jurkat cells underwent apoptosis
- fraction of (−)-EGCG absorbed [14]: 0.012%
- time within which compound degraded in culture medium [15]: ≤ 20 min

Compound: O=C(O[C@@H]1Cc2c(O)cc(O)cc2O[C@@H]1c1ccc(O)cc1)c1cc(O)c(O)c(O)c1 [Compound 6, (−)-(2R,3R)-5,7-dihydroxy-2-(4-hydroxyphenyl)chroman-3-yl 3,4,5-trihydroxybenzoate]
- IC50 [10, 17]: 2.69 µM
- IC50 [11]: 2690 nM
- inhibition of chymotrypsin-like activity in lysates of treated cells ([12]; 25 μM): 30%
- increase in caspase-3 activity [16]: 4 fold
